Reference: US20150087723A1, “MICROBIAL COMPOSITION” (Rohm and Haas Company, priority 2011, published 2015)

Tests used:
[1] = tested on: Escherichia coli (E. coli—ATCC #10536); experiment: Automated assessment of efficacy in model surfactant base (2.85% sodium cocoyl glycinate + 1.85% sodium lauroamphoacetate, pH 10), 15 seconds exposure, OD450/OD590 readout; type: cell-based; settings: for MBC: Escherichia coli, ATCC10536, 15 s, in 2.85% sodium cocoyl glycinate + 1.85% sodium lauroamphoacetate solution at pH 10, E. coli, read-out: MBC (% w/v); for No. of replicates showing growth (out of 4) / Δ OD 450 nm = OD450 (time = 16 hours) - OD450 (time zero), Mean / Δ OD 590 nm OD590 (time = 16 hours) - OD590 (time zero), Mean: model surfactant solution
Method: Solutions were prepared such that the concentrations of the surfactant components and test actives were 1.1×x the final desired concentration in order to allow for dilution with the bacterial inoculum in the test. The solutions were manually adjusted to pH 10.0 by drop wise addition of sodium hydroxide solution, as measured with a phi meter at ambient temperature.
Tests were conducted using standard microtiter plate assays using an automated liquid handling system, 270 μl of the surfactant test solution was pipetted into each well of the microtitre plate and 30 μl of the bacterial suspension was then added. After exactly 15 seconds of bacterial exposure, a 30 μl volume of bacterial cells was withdrawn and transferred to 270 μl of D/E quench solution. After 5 minutes in the D/E quench, the optical density (OD) was measured for each plate in turn at two specific wavelengths (450 nm and 590 nm). These provide a dual check of antimicrobial activity, as the OD450 reading is specific for the yellow colour of D/E quench when bacterial growth is observed, whereas OD590 is specific for the initial purple colour of the D/E quench which is retained if no bacterial growth is observed. After the time zero OD measurements, plates were then incubated at 37° C. overnight (16 hours) before repeating the OD measurements. Delta OD values were calculated by subtracting […] the initial value at time zero. Bacterial growth is observed as an increase in OD450 and a decrease in ΔOD590. To identify antibacterially efficacious systems (those preventing appreciable bacterial growth after incubation), the following threshold changes in OD readings have been adopted: if (1), OD450 increases by less than 0.2 absorbance unit on incubation and (2). OD590 decreases by less than 0.35 unit on incubation. Conversely, where OD450 increases by more than 0.2 AU and OD590 decreases by more than 0.35 unit after incubation, corresponding to a colour shift from purple to yellow, the test system allows bacterial growth and is not deemed efficacious. Four replicate measurements in the same plate have been made for each test system. The number of replicate wells showing either bacterial growth or no growth is also readily assessed by eye by following the colour change.
Dose responses for individual components and binary mixtures of actives at a used concentration ratio were generated by sequential dilution of liquors with further surfactant solution to obtain a series of endpoints.
In some selected cases, the combinations were also tested at the weight ratio 1:1.

[2] = tested on: Staphylococcus aureus (10788 strain); experiment: Antimicrobial efficacy in water, 15 seconds contact, mean bacterial survival NMBS by colony count; type: cell-based; settings: for NMBS: alone, S. Aureus, 15 seconds contact; for MBC (minimum biocidal concentration): single component, against S. Aureus, in water
Method: Selected materials were also tested against a representative Gram positive Staphylococcus aureus.
This suspension was separated into equal volumes and centrifuged at 4000 rpm for 15 minutes. Following centrifugation the pellet was re-suspended in saline to give a final concentration of 0.35 OD620 equivalent to about 10^8 cells per millilitre for this particular organism. Here, OD620 indicates the absorbance of a sample in a cuvette of 1.0 cm path length at a wavelength of 620 nm. This bacterial stock was used for assaying against antimicrobial actives (in triplicate).
The following assay describes the testing of 8 materials using 6 dilutions across half of a 96-well micro litre plate (MTP). Using this approach it is possible to assay 16 actives (without replicates) with, one full dilution plate, replicating this set up in two halves of the plate columns, 1-6 and 7-12.
IM solutions of the test actives were prepared in dimethylsulphoxide (DMSO).
This MTP was labeled as the “Screening plate”.
In another MTP, labeled as the “Dilution plate”, 270 μl of D/E neutralising solution from DIFCO Composition was added to column 1. The composition of the neutralising solution was as follows: pancreatic digest of casein, 5.0 g/L; Yeast Extract, 2.5 g/L; Dextrose, 10 g/L, sodium thioglycollate, 1.0 g/L, sodium thiosulphate, 6.0 g/L; sodium bisulphite, 2.5 g/L; Polysorbate 80, 5.0 g/L; lecithin 7.0 g/L; bromocresol purple, 0.02 g/L with a pH is the range 7.6±0.2.
270 μl of tryptone diluent solution was added to all the remaining wells of the Dilution MTP (columns 2-6).
Bacterial stock (30 μl) was then added to the prepared 270 μl of the solution of actives in the Screening Plate and mixed, using a multichannel pipette with 8 tips to aspirate and dispense the same volume of bacterial stock in parallel to 8 wells in rows A-H. After a contact time of 15 seconds, the mixtures were quenched by transferring 30 μl volumes of the mixtures into the 270 μl D/E neutralising solution in the prepared dilution plate, using aspiration to mix. After exactly 5 minutes in the D/E neutralising solution, 30 μl volumes were transferred from column 1 to column 2 of the Dilution MTP and mixed, before transferring further 30 μl volumes from column 2 into column 3. This process was repeated serially diluting the bacteria across the plate to column 6.
30 μl volumes from each well in the Dilution MTP were transferred onto pre-labeled segment of Tryptone Soya Agar (TSA) plates starting from the lowest bacterial concentration (highest dilution, column 6) to the highest bacterial concentration (column 1). The TSA plates were allowed to stand for ca. 2 hours so that the 30 μl inocula spots could dry and the plates were then inverted and incubated overnight at 37° C. before enumerating the bacterial colonies at the labeled dilutions to determine the effects of the actives on bacterial growth.
Mean bacterial survival numbers NMBS (expressed in Log CFU/ml) are obtained by first determining the segment of the TSA plate where the number of bacterial colonies is countable. From the colony number in this segment, NMBS is calculated by the formula: […]
Here, Ncol is the colony count, and DF is the dilution factor taken from the MTP-well corresponding to the TSA plate segment (i.e. DF may range from 1 for the quench, to 6 for the highest dilution). The factor 100/3 is a conversion factor from the volume of the inocula spot to one millilitre.
Every assay test was performed in triplicate.
Thus, a value of NMBS of about 7 corresponds to a count of about 3 colonies from the fifth dilution well, i.e. with DF=5. Such a count of about 7 is generally observed when bacteria are exposed to non-biocidal materials. In case no surviving colonies are observed in any segment of the TSA plate, this is interpreted as complete kill and a value of NMBS=0 is reported.
S. aureus Bacterial stock was prepared as shown below and the antibacterial efficacy of the active was carried out as explained earlier for E. Coli.

## CCCc1ccccc1O [2-n-propylphenol]
[1]
  MBC: 1750 µg/mL
[1]; component alone at 0.125% w/v
  No. of replicates showing growth (out of 4): 4 out of 4
  Δ OD 450 nm = OD450 (time = 16 hours) - OD450 (time zero), Mean: −1.34
  Δ OD 590 nm OD590 (time = 16 hours) - OD590 (time zero), Mean: 0.54
[1]; component alone at 0.175% w/v
  No. of replicates showing growth (out of 4): 0 out of 4
  Δ OD 450 nm = OD450 (time = 16 hours) - OD450 (time zero), Mean: −0.10
  Δ OD 590 nm OD590 (time = 16 hours) - OD590 (time zero), Mean: 0.09
[1]; component alone at […] w/v
  No. of replicates showing growth (out of 4): 4 out of 4
  Δ OD 450 nm = OD450 (time = 16 hours) - OD450 (time zero), Mean: −1.43
  Δ OD 590 nm OD590 (time = 16 hours) - OD590 (time zero), Mean: 0.44
[2]; 0.05% w/v
  NMBS: 7.40 log CFU/ml
[2]; 0.125% w/v
  NMBS: 7.06 log CFU/ml
[2]; 0.5% w/v
  NMBS: 0 log CFU/ml
[2]; […] w/v
  NMBS: 4.12 log CFU/ml
[2]
  MBC (minimum biocidal concentration): 0.5 % w/v

## CC(C)=CCC/C(C)=C/CO [(E)-3,7-dimethylocta-2,6-dien-1-ol]
[1]
  MBC: > 5000 µg/mL
[1]; component alone at 0.2% w/v
  No. of replicates showing growth (out of 4): 4 out of 4
  Δ OD 450 nm = OD450 (time = 16 hours) - OD450 (time zero), Mean: −0.54
  Δ OD 590 nm OD590 (time = 16 hours) - OD590 (time zero), Mean: 0.60
[1]; component alone at 0.3% w/v
  No. of replicates showing growth (out of 4): 4 out of 4
  Δ OD 450 nm = OD450 (time = 16 hours) - OD450 (time zero), Mean: −0.51
  Δ OD 590 nm OD590 (time = 16 hours) - OD590 (time zero), Mean: 0.59
[1]; component alone at 0.4% w/v
  No. of replicates showing growth (out of 4): 4 out of 4
  Δ OD 450 nm = OD450 (time = 16 hours) - OD450 (time zero), Mean: −0.49
  Δ OD 590 nm OD590 (time = 16 hours) - OD590 (time zero), Mean: 0.60
[1]; component alone at 0.5% w/v
  No. of replicates showing growth (out of 4): 4 out of 4
  Δ OD 450 nm = OD450 (time = 16 hours) - OD450 (time zero), Mean: −0.45
  Δ OD 590 nm OD590 (time = 16 hours) - OD590 (time zero), Mean: 0.62
[1]; component alone at […] w/v
  No. of replicates showing growth (out of 4): 4 out of 4
  Δ OD 450 nm = OD450 (time = 16 hours) - OD450 (time zero), Mean: −0.53
  Δ OD 590 nm OD590 (time = 16 hours) - OD590 (time zero), Mean: 0.58
[1]; terpene alcohol alone, model surfactant, E. Coli
  Terpene alcohol MBC %(w/v): 0.5 %(w/v)
[2]; 0.5% w/v
  NMBS: 7.43 log CFU/ml
[2]; 1.0% w/v
  NMBS: 7.18 log CFU/ml
[2]
  MBC (minimum biocidal concentration): >1.5 % w/v
